Data from patent publication US7781591B2, “Substituted 3-cyanopyridines as protein kinase inhibitors” (Wyeth LLC, priority 2006, dated 2010).
Like-named read-outs stand apart in the source and are kept apart here.

Target: T1, human PKCθ full length enzyme (Homo sapiens, UniProt Q04759)
T1 construct: human PKCθ full length enzyme (Panvera Cat# P2996); purchased Panvera P2996
Assay: PKCθ IMAP assay (fluorescence polarization)
Format: biochemical

[1] = human PKCθ full length enzyme, IMAP, average value, read-out: IC50 PKCθ IMAP

T1 sequence (Q04759 whole entry): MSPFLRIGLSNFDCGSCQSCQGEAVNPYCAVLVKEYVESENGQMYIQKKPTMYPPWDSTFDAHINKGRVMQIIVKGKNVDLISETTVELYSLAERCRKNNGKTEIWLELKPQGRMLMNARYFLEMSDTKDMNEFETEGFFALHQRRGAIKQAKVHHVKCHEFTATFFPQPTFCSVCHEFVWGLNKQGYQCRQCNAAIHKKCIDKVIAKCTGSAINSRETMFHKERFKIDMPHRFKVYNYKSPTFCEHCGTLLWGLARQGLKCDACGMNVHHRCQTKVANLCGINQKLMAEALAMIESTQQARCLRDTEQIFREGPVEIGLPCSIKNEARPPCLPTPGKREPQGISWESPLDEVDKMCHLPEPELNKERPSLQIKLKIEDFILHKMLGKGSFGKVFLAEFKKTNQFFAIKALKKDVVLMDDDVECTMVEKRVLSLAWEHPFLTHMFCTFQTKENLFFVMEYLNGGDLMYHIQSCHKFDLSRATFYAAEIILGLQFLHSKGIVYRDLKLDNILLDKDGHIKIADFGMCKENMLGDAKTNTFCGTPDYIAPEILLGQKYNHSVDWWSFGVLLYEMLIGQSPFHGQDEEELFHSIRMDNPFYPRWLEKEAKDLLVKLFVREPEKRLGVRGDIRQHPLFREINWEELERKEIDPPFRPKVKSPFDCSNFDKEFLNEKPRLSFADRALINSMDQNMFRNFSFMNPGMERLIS

Row | Structure (SMILES) | IC50 [1] [nM] | IC50 [nM]
1 | COc1ccc(-c2cncc(C#N)c2Nc2cnc3[nH]ccc3c2Cl)cc1OC [Compound 522, 4-[(4-chloro-1H-pyrrolo[2,3-b]pyridin-5-yl)amino]-5-(3,4-dimethoxyphenyl)nicotinonitrile] | 20 | 
2 | COc1ccc(-c2c[n+]([O-])cc(C#N)c2Nc2ccc3[nH]ccc3c2)cc1OC [Compound 523, 5-(3,4-dimethoxyphenyl)-4-(1H-indol-5-ylamino)nicotinonitrile 1-oxide] | 737 | 
3 | COc1ccc(-c2cncc(C#N)c2N[C@H]2CC[C@H](N)CC2)cc1OC [Compound 524, 4-[(trans-4-aminocyclohexyl)amino]-5-(3,4-dimethoxyphenyl)nicotinonitrile] | 4100 | 
4 | CCCCNC(=O)Nc1ccc(-c2cncc(C#N)c2Nc2ccc3[nH]ccc3c2C)cc1 [Compound 525, 1-butyl-3-(4-{5-cyano-4-[(4-methyl-1H-indol-5-yl)amino]pyridin-3-yl}phenyl)urea] | 7 | 
5 | Cc1c(Nc2c(C#N)cncc2-c2ccc(NC(=O)OCc3ccccc3)c(F)c2)ccc2[nH]ccc12 [Compound 527, benzyl (4-{5-cyano-4-[(4-methyl-1H-indol-5-yl)amino]pyridin-3-yl}-2-fluorophenyl)carbamate] | 27 | 
6 | COc1ccc(COC(=O)Nc2ccc(-c3cncc(C#N)c3Nc3ccc4[nH]ccc4c3C)cc2F)cc1 [Compound 528, 4-methoxybenzyl (4-{5-cyano-4-[(4-methyl-1H-indol-5-yl)amino]pyridin-3-yl}-2-fluorophenyl)carbamate] | 40 | 
7 | Cc1c(Nc2c(C#N)cncc2-c2cc3cc(CN4CCN(C)CC4)ccc3o2)cc(Cl)c2[nH]ccc12 [Compound 529, 4-[(7-chloro-4-methyl-1H-indol-5-yl)amino]-5-{5-[(4-methylpiperazin-1-yl)methyl]-1-benzofuran-2-yl}nicotinonitrile] | 2 | 
8 | Cc1c(Nc2c(C#N)cncc2-c2cc3ccccc3o2)cc(Cl)c2[nH]ccc12 [Compound 531, 5-(1-benzofuran-2-yl)-4-[(7-chloro-4-methyl-1H-indol-5-yl)amino]nicotinonitrile] | 20 | 
9 | Cc1c(Nc2c(C#N)cncc2-c2ccc(OCCCl)cc2)cc(Cl)c2[nH]ccc12 [Compound 533, 5-[4-(2-chloroethoxy)phenyl]-4-[(7-chloro-4-methyl-1H-indol-5-yl)amino]nicotinonitrile] | 51 | 
10 | Cc1c(Nc2c(C#N)cncc2-c2ccc(OCCN(C)C)cc2)cc(Cl)c2[nH]ccc12 [Compound 534, 4-[(7-chloro-4-methyl-1H-indol-5-yl)amino]-5-{4-[2-(dimethylamino)ethoxy]phenyl}nicotinonitrile] | 17 | 
11 | Cc1c(Nc2c(C#N)cncc2-c2ccc(OCCN3CCN(C)CC3)cc2)cc(Cl)c2[nH]ccc12 [Compound 535, 4-[(7-chloro-4-methyl-1H-indol-5-yl)amino]-5-{4-[2-(4-methylpiperazin-1-yl)ethoxy]phenyl}nicotinonitrile] | 38 | 
12 | Cc1c(Nc2c(C#N)cncc2-c2cc3cc(CN4CCN(C(=O)OC(C)(C)C)CC4)ccc3o2)ccc2[nH]ccc12 [Compound 536, tert-butyl 4-[(2-{5-cyano-4-[(4-methyl-1H-indol-5-yl)amino]pyridin-3-yl}-1-benzofuran-5-yl)methyl]piperazine-1-carboxylate] | 58 | 
13 | Cc1c(Nc2c(C#N)cncc2-c2cc3cc(CN4CCN(S(C)(=O)=O)CC4)ccc3o2)ccc2[nH]ccc12 [Compound 538, 4-[(4-methyl-1H-indol-5-yl)amino]-5-(5-{[4-(methylsulfonyl)piperazin-1-yl]methyl}-1-benzofuran-2-yl)nicotinonitrile] | 15 | 
14 | Cc1c(Nc2c(C#N)cncc2-c2cnc(CN3CCN(C)CC3)n2C)ccc2[nH]ccc12 [Compound 539, 4-[(4-methyl-1H-indol-5-yl)amino]-5-{1-methyl-2-[(4-methylpiperazin-1-yl)methyl]-1H-imidazol-5-yl}nicotinonitrile] | 36 | 
15 | Cc1c(Nc2c(C#N)cncc2-c2cc3cc(CN4CCNCC4)ccc3o2)ccc2[nH]ccc12 [Compound 540, 4-[(4-methyl-1H-indol-5-yl)amino]-5-[5-(piperazin-1-ylmethyl)-1-benzofuran-2-yl]nicotinonitrile] | 5 | 
16 | COc1ccc(-c2cncc(C#N)c2Nc2cccc3cc[nH]c23)cc1OC [Compound 544, 5-(3,4-dimethoxyphenyl)-4-(1H-indol-7-ylamino)nicotinonitrile] | 737 | 
17 | Cc1c(Nc2c(C#N)cncc2-c2cc3cc(CN4CCNCC4)ccc3o2)cc(Cl)c2[nH]ccc12 [Compound 547, 4-[(7-chloro-4-methyl-1H-indol-5-yl)amino]-5-[5-(piperazin-1-ylmethyl)-1-benzofuran-2-yl]nicotinonitrile] | 4 | 
18 | Cc1c(Nc2c(C#N)cncc2-c2cc3cc(CN4CCN(C(=O)OC(C)(C)C)CC4)ccc3o2)cc(Cl)c2[nH]ccc12 [Compound 548, tert-butyl 4-[(2-{4-[(7-chloro-4-methyl-1H-indol-5-yl)amino]-5-cyanopyridin-3-yl}-1-benzofuran-5-yl)methyl]piperazine-1-carboxylate] | 406 | 
19 | CCN1CCN(Cc2ccc3oc(-c4cncc(C#N)c4Nc4ccc5[nH]ccc5c4C)cc3c2)CC1 [Compound 553, 5-{5-[(4-ethylpiperazin-1-yl)methyl]-1-benzofuran-2-yl}-4-[(4-methyl-1H-indol-5-yl)amino]nicotinonitrile] | 0.48 | 
20 | Cc1c(Nc2c(C#N)cncc2-c2cc3cc(CN4CC[N+](C)([O-])CC4)ccc3o2)ccc2[nH]ccc12 [Compound 554, 4-[(4-methyl-1H-indol-5-yl)amino]-5-{5-[(4-methyl-4-oxidopiperazin-1-yl)methyl]-1-benzofuran-2-yl}nicotinonitrile] |  | 6
21 | COc1ccc(-c2cncc(C#N)c2Nc2ccc3c(ccn3C)c2C)cc1OC [Compound 555, 5-(3,4-dimethoxyphenyl)-4-[(1,4-dimethyl-1H-indol-5-yl)amino]nicotinonitrile] | 226 | 

Further lines, with some results ahead:

Row | IC50 [1] [nM] | Structure (SMILES) | IC50 [nM]
22 | 10 | COC(=O)Nc1ccc(-c2cncc(C#N)c2Nc2ccc3[nH]ccc3c2C)cc1 [Compound 526, methyl (4-{5-cyano-4-[(4-methyl-1H-indol-5-yl)amino]pyridin-3-yl}phenyl)carbamate] | 
23 | 179 | COc1ccc(-c2cncc(C#N)c2Nc2ccc(C)c3cc[nH]c23)cc1OC [Compound 530, 5-(3,4-dimethoxyphenyl)-4-[(4-methyl-1H-indol-7-yl)amino]nicotinonitrile] | 
24 | 23 | Cc1c(Nc2c(C#N)cncc2-c2cnc(C=O)n2C)ccc2[nH]ccc12 [Compound 537, 5-(2-formyl-1-methyl-1H-imidazol-5-yl)-4-[(4-methyl-1H-indol-5-yl)amino]nicotinonitrile] | 
25 | 7 | Cc1c(Nc2c(C#N)cncc2-c2nccs2)ccc2[nH]ccc12 [Compound 541, 4-[(4-methyl-1H-indol-5-yl)amino]-5-(1,3-thiazol-2-yl)nicotinonitrile] | 
26 | 42 | Cc1c(Nc2c(C#N)cncc2-c2nccn2C)ccc2[nH]ccc12 [Compound 542, 5-(1-methyl-1H-imidazol-2-yl)-4-[(4-methyl-1H-indol-5-yl)amino]nicotinonitrile] | 
27 | 8 | Cc1c(Nc2c(C#N)cncc2-c2cscn2)ccc2[nH]ccc12 [Compound 543, 4-[(4-methyl-1H-indol-5-yl)amino]-5-(1,3-thiazol-4-yl)nicotinonitrile] | 
28 | 5 | COc1ccc(-c2cncc(C#N)c2Nc2ccc3[nH]ccc3c2F)cc1OC [Compound 546, 5-(3,4-dimethoxyphenyl)-4-[(4-fluoro-1H-indol-5-yl)amino]nicotinonitrile] | 
29 | 10 | COc1ccc(-c2cncc(C#N)c2Nc2ccc3[nH]c(C)cc3c2C)cc1OC [Compound 549, 5-(3,4-dimethoxyphenyl)-4-[(2,4-dimethyl-1H-indol-5-yl)amino]nicotinonitrile] | 
30 | 205 | Cc1c(Nc2c(C#N)cncc2-c2ccccc2CN(C)C)ccc2[nH]ccc12 [Compound 550, 5-{2-[(dimethylamino)methyl]phenyl}-4-[(4-methyl-1H-indol-5-yl)amino]nicotinonitrile] | 
31 | 28 | COc1ccc(C=O)cc1-c1cncc(C#N)c1Nc1ccc2[nH]ccc2c1C [Compound 551, 5-(5-formyl-2-methoxyphenyl)-4-[(4-methyl-1H-indol-5-yl)amino]nicotinonitrile] | 
32 | 84 | COc1ccc(CN2CCN(C)CC2)cc1-c1cncc(C#N)c1Nc1ccc2[nH]ccc2c1C [Compound 552, 5-{2-methoxy-5-[(4-methylpiperazin-1-yl)methyl]phenyl}-4-[(4-methyl-1H-indol-5-yl)amino]nicotinonitrile] | 
33 | 110 | Cc1c(Nc2c(C#N)cncc2-c2cccc(C(=O)O)c2)ccc2[nH]ccc12 [Compound 556, 3-{5-cyano-4-[(4-methyl-1H-indol-5-yl)amino]pyridin-3-yl}benzoic acid] | 
34 | 82 | COc1ccccc1-c1cncc(C#N)c1Nc1ccc2[nH]ccc2c1C [Compound 557, 5-(2-methoxyphenyl)-4-[(4-methyl-1H-indol-5-yl)amino]nicotinonitrile] | 
35 | 36 | COc1cccc(-c2cncc(C#N)c2Nc2ccc3[nH]ccc3c2C)c1 [Compound 558, 5-(3-methoxyphenyl)-4-[(4-methyl-1H-indol-5-yl)amino]nicotinonitrile] | 
36 | 6 | COc1ccc(-c2cncc(C#N)c2Nc2ccc3[nH]ccc3c2C)cc1 [Compound 559, 5-(4-methoxyphenyl)-4-[(4-methyl-1H-indol-5-yl)amino]nicotinonitrile] | 
37 | 27 | Cc1c(Nc2c(C#N)cncc2-c2ccccc2)ccc2[nH]ccc12 [Compound 560, 4-[(4-methyl-1H-indol-5-yl)amino]-5-phenylnicotinonitrile] | 
38 | 21 | Cc1c(Nc2c(C#N)cncc2-c2cccs2)ccc2[nH]ccc12 [Compound 561, 4-[(4-methyl-1H-indol-5-yl)amino]-5-(2-thienyl)nicotinonitrile] | 
39 | 12 | Cc1c(Nc2c(C#N)cncc2-c2ccsc2)ccc2[nH]ccc12 [Compound 562, 4-[(4-methyl-1H-indol-5-yl)amino]-5-(3-thienyl)nicotinonitrile] | 
